Reference: PubChem BioAssay (NCI)
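Test compounds were applied to cells in 96-well plates for 48 hours at 5 doses. TGI denotes the concentration required for complete inhibition of growth.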

How the values were obtained:
Test in all cases: NCI tumour cell line growth inhibition, 48 h
MDA-MB-231 breast = test system: MDA-MB-231 breast
OVCAR-4 ovarian = test system: OVCAR-4 ovarian
RPMI-8226 leukemia = test system: RPMI-8226 leukemia
KM12 colon = test system: KM12 colon
OVCAR-5 ovarian = test system: OVCAR-5 ovarian
SK-MEL-2 melanoma = test system: SK-MEL-2 melanoma
UACC-257 melanoma = test system: UACC-257 melanoma
SNB-19 CNS = test system: SNB-19 CNS
OVCAR-8 ovarian = test system: OVCAR-8 ovarian
PC-3 prostate = test system: PC-3 prostate
NCI-H460 lung = test system: NCI-H460 lung
CCRF-CEM leukemia = test system: CCRF-CEM leukemia
HT29 colon = test system: HT29 colon
MDA-MB-435 = test system: MDA-MB-435
SK-OV-3 ovarian = test system: SK-OV-3 ovarian
HCT-15 colon = test system: HCT-15 colon
SW-620 colon = test system: SW-620 colon
A549 NSCLC = test system: A549 NSCLC
SF-268 CNS = test system: SF-268 CNS
UO-31 renal = test system: UO-31 renal
RXF 393 renal = test system: RXF 393 renal
MOLT-4 leukemia = test system: MOLT-4 leukemia
ACHN renal = test system: ACHN renal
CAKI-1 renal = test system: CAKI-1 renal
DU-145 prostate = test system: DU-145 prostate
SN12C renal = test system: SN12C renal
TK-10 renal = test system: TK-10 renal
HOP-62 NSCLC = test system: HOP-62 NSCLC
SNB-75 CNS = test system: SNB-75 CNS
NCI-H226 lung = test system: NCI-H226 lung
OVCAR-3 ovarian = test system: OVCAR-3 ovarian
U251 CNS = test system: U251 CNS
MDA-N = test system: MDA-N
T-47D breast = test system: T-47D breast
LOX IMVI melanoma = test system: LOX IMVI melanoma
SK-MEL-28 melanoma = test system: SK-MEL-28 melanoma
786-0 renal = test system: 786-0 renal
NCI-H522 lung = test system: NCI-H522 lung
HCT-116 colon = test system: HCT-116 colon
HL-60(TB) leukemia = test system: HL-60(TB) leukemia
COLO 205 colon = test system: COLO 205 colon
MCF7 breast = test system: MCF7 breast
SF-539 CNS = test system: SF-539 CNS
BT-549 breast = test system: BT-549 breast
HS 578T breast = test system: HS 578T breast
SK-MEL-5 melanoma = test system: SK-MEL-5 melanoma
SF-295 CNS = test system: SF-295 CNS
M14 melanoma = test system: M14 melanoma
UACC-62 melanoma = test system: UACC-62 melanoma
EKVX NSCLC = test system: EKVX NSCLC
SR leukemia = test system: SR leukemia
NCI/ADR-RES ovarian = test system: NCI/ADR-RES ovarian
K-562 leukemia = test system: K-562 leukemia
IGROV1 ovarian = test system: IGROV1 ovarian
HOP-92 NSCLC = test system: HOP-92 NSCLC
NCI-H23 lung = test system: NCI-H23 lung
HCC-2998 colon = test system: HCC-2998 colon
MALME-3M melanoma = test system: MALME-3M melanoma

In the case of Cc1ccc(S(=O)(=O)N(CCN2C(=O)c3ccccc3C2=O)c2cc3c4c(c2)Oc2cc(N(CCN5C(=O)c6ccccc6C5=O)S(=O)(=O)c5ccc(C)cc5)cc5c2C4(C)c2c(cc(N(CCN4C(=O)c6ccccc6C4=O)S(=O)(=O)c4ccc(C)cc4)cc2O5)O3)cc1, the TGI (MDA-MB-231 breast) is reported as 45.8 µM, the TGI (OVCAR-4 ovarian) is reported as > 100 µM and the TGI (RPMI-8226 leukemia) is reported as > 100 µM. The TGI (KM12 colon) was > 100 µM, the TGI (OVCAR-5 ovarian) was > 100 µM and the TGI (SK-MEL-2 melanoma) was > 100 µM. For the same compound, the TGI (UACC-257 melanoma) was > 100 µM, the TGI (SNB-19 CNS) was > 100 µM and the TGI (OVCAR-8 ovarian) was > 100 µM. For the same compound, the TGI (PC-3 prostate) was > 100 µM, the TGI (NCI-H460 lung) was > 100 µM and the TGI (CCRF-CEM leukemia) was > 100 µM. The TGI (HT29 colon) was > 100 µM, the TGI (MDA-MB-435) was > 100 µM and the TGI (SK-OV-3 ovarian) was > 100 µM. The TGI (HCT-15 colon) was > 100 µM, the TGI (SW-620 colon) was > 100 µM and the TGI (A549 NSCLC) was > 100 µM. The TGI (SF-268 CNS) was > 100 µM, the TGI (UO-31 renal) was > 100 µM and the TGI (RXF 393 renal) was > 100 µM. For the same compound, the TGI (MOLT-4 leukemia) was > 100 µM, the TGI (ACHN renal) was > 100 µM and the TGI (CAKI-1 renal) was > 100 µM. For the same compound, the TGI (DU-145 prostate) was > 100 µM, the TGI (SN12C renal) was > 100 µM and the TGI (TK-10 renal) was > 100 µM. The TGI (HOP-62 NSCLC) was > 100 µM, the TGI (SNB-75 CNS) was > 100 µM and the TGI (NCI-H226 lung) was > 100 µM. For the same compound, the TGI (OVCAR-3 ovarian) was > 100 µM, the TGI (U251 CNS) was > 100 µM and the TGI (MDA-N) was > 100 µM. For the same compound, the TGI (T-47D breast) was > 100 µM, the TGI (LOX IMVI melanoma) was > 100 µM and the TGI (SK-MEL-28 melanoma) was > 100 µM. For the same compound, the TGI (786-0 renal) was > 100 µM, the TGI (NCI-H522 lung) was > 100 µM and the TGI (HCT-116 colon) was > 100 µM. For the same compound, the TGI (HL-60(TB) leukemia) was > 100 µM, the TGI (COLO 205 colon) was > 100 µM and the TGI (MCF7 breast) was > 100 µM. The TGI (SF-539 CNS) was > 100 µM, the TGI (BT-549 breast) was > 100 µM and the TGI (HS 578T breast) was > 100 µM. The TGI (SK-MEL-5 melanoma) was > 100 µM, the TGI (SF-295 CNS) was > 100 µM and the TGI (M14 melanoma) was > 100 µM. For the same compound, the TGI (UACC-62 melanoma) was > 100 µM, the TGI (EKVX NSCLC) was > 100 µM and the TGI (SR leukemia) was > 100 µM. The TGI (NCI/ADR-RES ovarian) was > 100 µM, the TGI (K-562 leukemia) was > 100 µM and the TGI (IGROV1 ovarian) was > 100 µM.

With Nc1nc(N)c2c(Cl)c(CNc3ccc(C(=O)NC(CC(=O)O)C(=O)O)cc3)ccc2n1 (configuration not stated) the TGI (MDA-MB-231 breast) was > 100 µM, the TGI (OVCAR-4 ovarian) was > 100 µM and the TGI (RPMI-8226 leukemia) was > 100 µM. The TGI (KM12 colon) was > 100 µM, the TGI (HOP-92 NSCLC) was > 100 µM and the TGI (SK-MEL-2 melanoma) was > 100 µM. For the same compound, the TGI (UACC-257 melanoma) was > 100 µM, the TGI (SNB-19 CNS) was > 100 µM and the TGI (OVCAR-8 ovarian) was > 100 µM. For the same compound, the TGI (PC-3 prostate) was > 100 µM, the TGI (NCI-H460 lung) was > 100 µM and the TGI (HT29 colon) was > 100 µM. For the same compound, the TGI (MDA-MB-435) was > 100 µM, the TGI (SK-OV-3 ovarian) was > 93.3 µM and the TGI (HCT-15 colon) was > 100 µM. For the same compound, the TGI (SW-620 colon) was > 100 µM, the TGI (A549 NSCLC) was > 100 µM and the TGI (SF-268 CNS) was > 100 µM. The TGI (UO-31 renal) was > 100 µM, the TGI (RXF 393 renal) was > 100 µM and the TGI (MOLT-4 leukemia) was > 100 µM. The TGI (ACHN renal) was > 100 µM, the TGI (CAKI-1 renal) was > 100 µM and the TGI (DU-145 prostate) was > 100 µM. The TGI (SN12C renal) was > 100 µM, the TGI (TK-10 renal) was > 100 µM and the TGI (NCI-H23 lung) was > 100 µM. The TGI (HOP-62 NSCLC) was > 100 µM, the TGI (SNB-75 CNS) was > 100 µM and the TGI (NCI-H226 lung) was > 100 µM. For the same compound, the TGI (HCC-2998 colon) was > 100 µM, the TGI (OVCAR-3 ovarian) was > 100 µM and the TGI (U251 CNS) was > 100 µM. For the same compound, the TGI (MDA-N) was > 100 µM, the TGI (T-47D breast) was > 100 µM and the TGI (LOX IMVI melanoma) was > 100 µM. For the same compound, the TGI (786-0 renal) was > 100 µM, the TGI (HCT-116 colon) was > 100 µM and the TGI (HL-60(TB) leukemia) was > 100 µM. For the same compound, the TGI (COLO 205 colon) was > 100 µM, the TGI (MCF7 breast) was > 34.2 µM and the TGI (SF-539 CNS) was 31.9 µM. For the same compound, the TGI (BT-549 breast) was > 100 µM, the TGI (HS 578T breast) was > 100 µM and the TGI (SK-MEL-5 melanoma) was > 100 µM. The TGI (SF-295 CNS) was > 100 µM, the TGI (M14 melanoma) was > 100 µM and the TGI (UACC-62 melanoma) was > 100 µM. For the same compound, the TGI (MALME-3M melanoma) was > 100 µM, the TGI (SR leukemia) was > 100 µM and the TGI (NCI/ADR-RES ovarian) was > 100 µM. For the same compound, the TGI (K-562 leukemia) was > 100 µM and the TGI (IGROV1 ovarian) was 0.415 µM.
